Test results published in patent publication US12421211B2, “Heterocyclic compounds” (Hoffmann-La Roche Inc., priority 2021, dated 2025).
Where a name gives a salt, the structure may show the parent alone.

Assays:
[1] = system: Acinetobacter baumannii ATCC17961; test: Antimicrobial susceptibility testing: 90% growth inhibitory concentration (IC90) determination; assay type: cell-based; conditions: Acinetobacter baumannii, ATCC17961, 16 h, 90% growth inhibitory concentration, Acinetobacter baumannii ATCC17961, Iso-Sensitest broth, OD 600 nm over 16 h; read-out: ATCC 17961 IC90
Procedure, shortened: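 A. baumannii ATCC17961 at ~5×10^5 CFU/ml in Iso-Sensitest broth exposed to 10-point twofold dilutions (e.g. 50–0.097 μM final), 35±2° C. OD600 read every 20 minutes over 16h; IC50 and IC90 derived from inhibition during logarithmic growth.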

[2] = system: Acinetobacter baumannii ATCC17978; test: Minimal Inhibitory Concentration (MIC) assay; assay type: cell-based; conditions: Acinetobacter baumannii ATCC17978, CAMHB medium, 20 hours at 35±2° C., visual reading; read-out: MIC AB. ATCC17978
Method: Minimal Inhibitory Concentration Protocol (MIC) Assay:
Table 2 provides the in vitro potency of the compounds of present invention obtained against the strain Acinetobacter baumannii ATCC17978, which was assessed by an MIC (Minimal Inhibitory Concentration) assay as follows.
Test compounds were prepared from 10 mM DMSO stock solutions. The top dose was diluted from 10 mM to 2.5 mM by DMSO, followed by serial 2-fold 11 points dilutions in DMSO in a master plate (Greiner, Cat No: 651201). 2 μL compounds were transferred from the master plate into a new 96-well assay plate (Costar, 3599).
The growth medium […] Mueller Hinton Broth (CAMHIB) was prepared by adding 22 g powder (BD, 212322) in 1 L purified water, autoclaved, and supplemented with sterilized CaCl2 (20 mg per liter) and MgCl2 (10 mg per liter).
Vials of each of the test microorganisms were maintained frozen in the vapor phase of a liquid nitrogen freezer. Took out the bacterial strain ATCC 17978 from liquid nitrogen freezer, thawed it at room temperature, and diluted the bacterial in the CAMHB medium to achieve a final inoculum of 2×10^5 CFU/mL. 98 μL of the adjusted bacteria suspension was dispensed to the assay plate and pipetted 5 times.
Then the assay plates were incubated for 20 hours at 35±2° C. in ambient air with humidity. Following incubation, MIC […] value, the lowest concentration of drug that inhibits visible growth of the microorganism, was recorded by visual judgment of bacterial growth through magnification mirror of MIC reader, and the assay plates were photographed with Qcount system as image raw data. Meanwhile, the D600 of assay plates was recorded with SpectraMax Plus384 as GD raw data.

| Compound | IC90 [1] | MIC [2] |
| --- | --- | --- |
| Cn1c(-c2ccc(-c3cn[nH]c3-c3ccccn3)c(F)c2F)cnc1C(=O)Nc1ccc(C(=O)N2CCN(C(=O)C3CC[N+](C)(C)CC3)CC2)c(Cl)c1 [Example I1, N-[3-chloro-4-[4-(1,1-dimethylpiperidin-1-ium-4-carbonyl)piperazine-1-carbonyl]phenyl]-5-[2,3-difluoro-4-[5-(2-pyridyl)-1H-pyrazol-4-yl]phenyl]-1-methyl-imidazole-2-carboxamide; formate] | 432 nM | 2.32 µM |
| COCCn1cc(-c2ccc(-c3cnc(C(=O)Nc4ccc(C(=O)N5CCN(C(=O)C6CC[N+](C)(C)CC6)CC5)c(Cl)c4)n3C)c(F)c2F)c(Cl)n1 [Example F30, N-[3-chloro-4-[4-(1,1-dimethylpiperidin-1-ium-4-carbonyl)piperazine-1-carbonyl]phenyl]-5-[4-[3-chloro-1-(2-methoxyethyl)pyrazol-4-yl]-2,3-difluoro-phenyl]-1-methyl-imidazole-2-carboxamide; formate] | 97 nM | 1.19 µM |
| COCCn1ncc(-c2ccc(-c3c(Cl)nc(C(=O)Nc4ccc(C(=O)N5CCN(C(=O)C6CC[N+](C)(C)CC6)CC5)c(Cl)c4)n3C)c(F)c2F)c1C [Example F53, 4-chloro-N-[3-chloro-4-[4-(1,1-dimethylpiperidin-1-ium-4-carbonyl)piperazine-1-carbonyl]phenyl]-5-[2,3-difluoro-4-[1-(2-methoxyethyl)-5-methyl-pyrazol-4-yl]phenyl]-1-methyl-imidazole-2-carboxamide; formate] | 110 nM | 0.6 µM |
